In one data set the test system is HeLa. The data set is described as follows: Combination with bortezomib, cell death. The class given is cell-based, human. As to conditions: 48 h post-treatment; BTZ 6 nM, compound 13 0.75 µM, alone or combined.
Another data set deals with MDA-MB468. Kind of data set: SRB antiproliferative/antigrowth assay. The class given is cell-based, human. As to conditions: Homo sapiens, read-out: GI50 MB468. A digest of the protocol:
(§1)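 Cells seeded 24 h before exposure to seven concentrations (100 µM to 0.0064 µM) for 48 h at 37 °C. Growth by TCA fixation and SRB staining, absorbance 515–564 nm, relative to time-zero and untreated controls; GI50 from variable-slope sigmoidal fit, reported as greater/less than range limits when not reached.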

A further data set concerns MDA-MB231. Kind of data set: SRB antiproliferative/antigrowth assay. The class given is cell-based, human. As to conditions: for GI50: Homo sapiens, read-out: GI50 MB231. A digest of the protocol:
as §1

For the next data set, the system named is MCF7. Kind of data set: SRB antiproliferative/antigrowth assay. The class given is cell-based, human. Put shortly: as §1
A further data set has as its system 184B5. The data set is described as follows: SRB antiproliferative/antigrowth assay, non-cancer cells. Type of data set: cell-based, human. As to conditions: Homo sapiens, 184B5, 48 h, read-out: GI50 184B5. A digest of the protocol: as §1
A further data set relates to MCF10A. The description is as above. Type of data set: cell-based, human. As to conditions: Homo sapiens, MCF-10A, read-out: GI50 MCF10A. A digest of the protocol: as §1
A further data set relates to lysosomal volume. On the set-up: method as in PMID 16137197. As to conditions: cited from earlier work.
The test system of data set [1] is MDA-MB231, MDA-MB468, MCF7 breast cancer cells; 184B5 and MCF10A non-cancer breast cells. Kind of data set: SRB assay, panel of breast cancer and non-cancer breast cell lines. Type of data set: cell-based, human. As to conditions: judged from GI50 values of Table 1. On the procedure: The antigrowth effects of 4-piperazinylquinoline sulfonyl analogs on human breast tumor cells was initially evaluated using MDA-MB468 (a PTEN defective, EGFR positive breast adenocarcioma), MDA-MB231 (p53 and pRB mutated, triple-negative breast carcinoma), and MCF7 (p53+/−, invasive ductal breast carcinoma) cell lines. In addition, the cytotoxicity of all the compounds was also evaluated with the 184B5 and MCF10A non-cancer immortalized breast epithelial cell lines, to determine if these newly synthesized compounds have differential cytotoxic effects on cancer and non-cancer cells. The panel of three breast cancer cell lines with different genetic back ground and the well-studied two non-cancer immortalized breast cell lines would provide insights into the efficacy and toxicity of the test compounds in the different genetic background and at different stages of tumor development. The dose response of each cell line was established by determining the number of viable cells after 48 h of continuous drug treatment against seven different concentrations (100 µM to 0.0064 µM) of each compound. The reading of sulphorodamine B (SRB) staining is known to accurately reflect the level of total cellular macromolecules/cell growth/proliferation[6],[23]. […] The data for CQ and cisplatin were included as references. […] The differences in the GI50 values may be attributable to such factors as the nature of the sulfonyl group and the halogen substitution on the 7th position of the 4-piperazinylquinoline ring system, and the genetic and biochemical background of the cell lines.
Antiproliferative/antigrowth effects were determined by a SRB-based protocol[6],[23]. For a typical screening experiment, 5,000–10,000 cells were inoculated into 100 µL medium per well of a 96-well microtiter plate as described previously. Briefly, after the inoculation, the microtiter plate was incubated at 37 °C, 5% CO2, 95% air and 100% relative humidity for 24 h, prior to addition of experimental drugs. Some of the sample wells were fixed with 25 µL of 50% tricholoroacetic acid (TCA) as a control of the cell population for each cell line at the time of drug addition (Tz). An aliquot of the frozen stock was thawed and diluted to a desired final maximum test-concentration with complete medium. Two to ten-fold serial dilutions were made to provide a total of seven drug concentrations (and a control [C]). Following addition of drugs, the culture plate was incubated for additional 48 h. Cells were fixed in situ by slowly adding 25 µL of ice-cold 50% (w/v) TCA (final concentration, 10% TCA), and were then incubated for 60 min at 4 °C. The supernatant was discarded, and the plate was washed five times with tap water, followed by air-dry. 50 µL of SRB solution at 0.4% (w/v) in 1% acetic acid was added to each well, and the plate was incubated for >30 min at room temperature. Unbound SRB was removed by five washes with tap water, followed by air-drying. The cells “stained” with SRB were solubilized with 10 mM trizma base, and the absorbance was read on an automated plate reader at a wavelength of 515–564 nm. The relative growth rate (%) was calculated for each of the compound concentrations according to the following formula: (Ti−Tz)/(C−Tz)×100
In the formula, time zero (Tz), control growth (C), and OD for different concentration of tested compounds (Ti). The GI50 for each compound was obtained from a non-linear Sigmoidal dose-response (variable slope) curve which is fitted by GraphPad Prism v.4.03 software. Values were calculated for each of these parameters if the level of activity was reached. However, if the effect was not reached or was exceeded, the value for that parameter was expressed as greater or less than the maximum or minimum concentration tested.

Another data set relates to HeLa cells. The data set is described as follows: Sequential treatment with monastrol and compound 13, DNA content. Type of data set: cell-based, human. The conditions noted are these: 100 μM monastrol, 18 h. On the procedure:
0 h 2 h post-monastrol 4 h post-monastrol 6 h post-monastrol […]
death. HeLa cells, treated with 100 μM of monastrol for 18 h (defined 0 h), were released into complete medium in the absence (sham) or presence of 10 μM compound 13 (VR23). Note that monastrol arrested cells […]

Where [2] appears, read: MDA-MB-468, 48 h, SRB, 48 h post-treatment, mean of triplicates of at least two experiments.
Setting [3] is: MDA-MB-231, 48 h, SRB, 48 h post-treatment, mean of triplicates of at least two experiments.
Setting [4] is: Homo sapiens, MCF7, 48 h, SRB, 48 h post-treatment, mean of triplicates of at least two experiments, read-out: GI50 MCF7.
Where [5] appears, read: SRB, 48 h post-treatment, non-cancer breast epithelial cells.
Where [6] appears, read: 48 h, SRB, 48 h post-treatment, non-cancer breast epithelial cells.

Entries after “also recorded” stand apart in the source; their conditions may differ. Where two headings read alike, the source gives them in different places.

The text below walks through data of publication PMC6474902, “Examination of novel 4-aminoquinoline derivatives designed and synthesized by a hybrid pharmacophore approach to enhance their anticancer activities” (Scientific Reports, 2019).

As a reminder, the GI50 is the concentration at which growth is held to half of that of the control. Usually melting point stands for the temperature of the solid-liquid transition.

Turning to `CC(C)C[C@H](NC(=O)[C@H](Cc1ccccc1)NC(=O)c1cnccn1)B(O)O` [Bortezomib, bortezomib, reference compound], the cell death entry with HeLa is reported as “neither 6 nM BTZ nor 0.75 µM of compound 13 resulted in substantial HeLa cell death”.
In the case of `CCN(CC)CCCC(C)Nc1ccnc2cc(Cl)ccc12` (stereo not shown) [Chloroquine, reference compound], the GI50 worked out at 28.6 ± 1.3 µM in the data set with MDA-MB468 (MDA-MB-468, 48 h); 22.5 ± 1.4 µM in the data set with MDA-MB231 (MDA-MB-231, 48 h); 38.4 µM in the data set with MCF7 (Homo sapiens, MCF7, 48 h, read-out: GI50 MCF7, SRB, 48 h post-treatment, mean of triplicates of at least two experiments); 38.4 ± 1.2 µM in the data set with MCF7 (read-out: GI50 MCF7, SRB, 48 h post-treatment, mean of triplicates of at least two experiments); 76.1 ± 1.1 µM in the data set on 184B5; 81.3 ± 1.3 µM in the data set with MCF10A (48 h). For the same compound, the lysosomal volume entry with lysosomal volume is “causes an increase in lysosomal volume”.
The compound `Cc1ccc(S(=O)(=O)NCCCNc2ccnc3cc(C(F)(F)F)ccc23)cc1` [Compound 35, 4-Methyl-N-[3-(7-trifluoromethyl-quinolin-4-ylamino)-propyl]-benzenesulfonamide] yielded a melting point of 77 to 79 °C. In the data set with MDA-MB468 (setting [2]), the GI50 is 6.2 ± 0.4 µM. The GI50 in the data set with MDA-MB231 (setting [3]) turned out to be 6.4 ± 0.5 µM. The GI50 in the data set on MCF7 (setting [4]) was 6.9 ± 0.5 µM. Further, the GI50 in the data set with 184B5 (setting [5]) is 12.2 ± 0.9 µM. Besides, the GI50 in the data set with MCF10A (setting [6]) came out at 10.9 ± 0.9 µM. Moreover, the “preferential antigrowth effect on cancer versus non-cancer cells (in words)” value in data set [1] was “effective and preferential antigrowth effects on cancer cells; also recorded: stronger antigrowth/antiproliferation activity against cancer cells than non-cancer cells”.
The compound `O=[N+]([O-])c1ccc(S(=O)(=O)NCCCNc2ccnc3cc(C(F)(F)F)ccc23)c([N+](=O)[O-])c1` [Compound 40, 2,4-Dinitro-N-[3-(7-trifluoromethyl-quinolin-4-ylamino)-propyl]-benzenesulfonamide] gave a melting point of 198 to 200 °C. Besides, the GI50 in the data set on MDA-MB468 (MDA-MB-468, SRB, 48 h post-treatment, mean of triplicates of at least two experiments) came to 8.5 ± 0.4 µM. Further, the “increase in antigrowth activity against MDA-MB231 compared to mono nitro substituted compounds (30 and 39)” value with MDA-MB231 is recorded as 1.7–2.3 fold. For the same compound, the GI50 in the data set with MDA-MB231 (MDA-MB-231, SRB, 48 h post-treatment, mean of triplicates of at least two experiments) worked out at 8.9 ± 0.8 µM. Also, the GI50 with MCF7 (Homo sapiens, MCF7, SRB, 48 h post-treatment, mean of triplicates of at least two experiments, read-out: GI50 MCF7) worked out at 5.6 ± 0.3 µM. Further, the GI50 in the data set with 184B5 stood at 15.9 ± 0.9 µM. Also, in the data set with MCF10A (setting [5]), the GI50 came out at 22.3 ± 0.8 µM. Moreover, the “preferential antigrowth effect on cancer versus non-cancer cells (in words)” value in data set [1] is “effective and preferential antigrowth effects on cancer cells; also recorded: stronger antigrowth/antiproliferation activity against cancer cells than non-cancer cells”.
The compound `COC(=O)c1sccc1S(=O)(=O)NCCCNc1ccnc2cc(C(F)(F)F)ccc12` [Compound 42, 3-[3-(7-Trifluoromethyl-quinolin-4-ylamino)-propylsulfamoyl]-thiophene-2-carboxylic acid methyl ester] gave a melting point of 137 to 139 °C. In addition, the GI50 with MDA-MB468 (setting [2]) stood at 4.6 ± 0.2 µM. In the data set with MDA-MB231 (setting [3]), the GI50 stood at 7.5 ± 0.6 µM. Also, the GI50 in the data set on MCF7 (setting [4]) is 4.3 ± 0.2 µM. Also, the GI50 in the data set with 184B5 (setting [5]) worked out at 12.1 ± 0.5 µM. The GI50 with MCF10A (setting [6]) came out at 14.4 ± 0.8 µM. Besides, the “preferential antigrowth effect on cancer versus non-cancer cells (in words)” value in [1] was “effective and preferential antigrowth effects on cancer cells; also recorded: stronger antigrowth/antiproliferation activity against cancer cells than non-cancer cells”.
Consider `CCOC(=O)C1=C(C)NC(=S)NC1c1cccc(O)c1` (stereo not shown) [monastrol], for which, in the data set with HeLa cells, the cell cycle arrest entry is “arrested cells at G2/M”.
